From ChEMBL document CHEMBL4414548 (J Med Chem, 2019)
pIC50: −log10 of the molar value.

Legend:
[1] = molecular target: T1, Non-receptor tyrosine-protein kinase TYK2 (Homo sapiens, UniProt P29597); test: Inhibition of fluorescein-labeled kinase tracer binding to His-TVMV-fused TYK2 JH2 domain (575 to 869 residues) (unknown origin) measured after 90 mins by HTRF assay
[2] = Cmax in Balb/c mouse assessed as 6-((5-Fluoropyridin-2-yl)amino)-4-((2-(methylsulfonyl)phenyl)amino)nicotinamide level at 10 mg/kg, po after 1 hr; format: ADME, organism-based; set-up: dose 10 mg/kg, route oral; settings: in vivo
[3] = Drug concentration in Balb/c mouse at 10 mg/kg, po after 0.5 hrs; format: ADME, organism-based; settings: in vivo, read-out: Drug uptake
[4] = Cmax in Balb/c mouse assessed as 6-((5-Fluoropyridin-2-yl)amino)-4-((2-(methylsulfonyl)phenyl)amino)nicotinamide level at 3 mg/kg, iv after 0.05 hrs; format: ADME, organism-based; set-up: dose 3 mg/kg, route intravenous; settings: in vivo
JAK1/TYK2 = JAK1/TYK2 (Homo sapiens, UniProt P23458+P29597); test: Inhibition of TYK2/JAK1 in IFNalpha-stimulated human Kit225 cells by steady-glo luciferase assay
JAK1/TYK2, sequence (P23458 whole entry): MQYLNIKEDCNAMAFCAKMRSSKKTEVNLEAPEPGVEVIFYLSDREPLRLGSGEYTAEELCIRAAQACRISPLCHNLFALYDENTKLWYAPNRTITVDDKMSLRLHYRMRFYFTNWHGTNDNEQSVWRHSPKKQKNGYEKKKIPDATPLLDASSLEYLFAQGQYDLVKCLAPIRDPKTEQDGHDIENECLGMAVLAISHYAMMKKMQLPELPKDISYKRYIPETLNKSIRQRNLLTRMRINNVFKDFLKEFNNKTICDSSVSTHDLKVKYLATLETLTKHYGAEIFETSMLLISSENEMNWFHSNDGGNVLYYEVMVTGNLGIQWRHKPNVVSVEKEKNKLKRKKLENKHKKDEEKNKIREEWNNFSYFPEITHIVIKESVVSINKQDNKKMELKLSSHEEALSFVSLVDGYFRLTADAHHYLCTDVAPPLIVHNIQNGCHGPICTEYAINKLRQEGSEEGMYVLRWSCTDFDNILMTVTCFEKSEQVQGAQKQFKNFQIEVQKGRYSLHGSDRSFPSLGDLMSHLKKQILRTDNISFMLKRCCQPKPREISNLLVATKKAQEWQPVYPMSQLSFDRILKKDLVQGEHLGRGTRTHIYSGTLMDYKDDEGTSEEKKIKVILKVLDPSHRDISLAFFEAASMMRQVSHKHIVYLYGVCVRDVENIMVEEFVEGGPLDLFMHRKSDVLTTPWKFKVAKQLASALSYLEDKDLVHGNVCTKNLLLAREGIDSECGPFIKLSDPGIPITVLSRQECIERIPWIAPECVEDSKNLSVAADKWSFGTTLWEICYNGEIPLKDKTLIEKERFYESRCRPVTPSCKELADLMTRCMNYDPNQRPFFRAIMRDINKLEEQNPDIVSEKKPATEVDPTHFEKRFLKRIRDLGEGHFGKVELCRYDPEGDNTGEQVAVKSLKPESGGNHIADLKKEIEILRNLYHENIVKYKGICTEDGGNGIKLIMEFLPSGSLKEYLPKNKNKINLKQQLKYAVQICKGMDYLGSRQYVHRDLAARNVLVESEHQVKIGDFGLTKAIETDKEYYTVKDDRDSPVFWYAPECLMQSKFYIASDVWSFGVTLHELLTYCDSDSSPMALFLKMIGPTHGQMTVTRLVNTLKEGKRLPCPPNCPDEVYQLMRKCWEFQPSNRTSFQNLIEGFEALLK
JAK1/TYK2, sequence (P29597 whole entry): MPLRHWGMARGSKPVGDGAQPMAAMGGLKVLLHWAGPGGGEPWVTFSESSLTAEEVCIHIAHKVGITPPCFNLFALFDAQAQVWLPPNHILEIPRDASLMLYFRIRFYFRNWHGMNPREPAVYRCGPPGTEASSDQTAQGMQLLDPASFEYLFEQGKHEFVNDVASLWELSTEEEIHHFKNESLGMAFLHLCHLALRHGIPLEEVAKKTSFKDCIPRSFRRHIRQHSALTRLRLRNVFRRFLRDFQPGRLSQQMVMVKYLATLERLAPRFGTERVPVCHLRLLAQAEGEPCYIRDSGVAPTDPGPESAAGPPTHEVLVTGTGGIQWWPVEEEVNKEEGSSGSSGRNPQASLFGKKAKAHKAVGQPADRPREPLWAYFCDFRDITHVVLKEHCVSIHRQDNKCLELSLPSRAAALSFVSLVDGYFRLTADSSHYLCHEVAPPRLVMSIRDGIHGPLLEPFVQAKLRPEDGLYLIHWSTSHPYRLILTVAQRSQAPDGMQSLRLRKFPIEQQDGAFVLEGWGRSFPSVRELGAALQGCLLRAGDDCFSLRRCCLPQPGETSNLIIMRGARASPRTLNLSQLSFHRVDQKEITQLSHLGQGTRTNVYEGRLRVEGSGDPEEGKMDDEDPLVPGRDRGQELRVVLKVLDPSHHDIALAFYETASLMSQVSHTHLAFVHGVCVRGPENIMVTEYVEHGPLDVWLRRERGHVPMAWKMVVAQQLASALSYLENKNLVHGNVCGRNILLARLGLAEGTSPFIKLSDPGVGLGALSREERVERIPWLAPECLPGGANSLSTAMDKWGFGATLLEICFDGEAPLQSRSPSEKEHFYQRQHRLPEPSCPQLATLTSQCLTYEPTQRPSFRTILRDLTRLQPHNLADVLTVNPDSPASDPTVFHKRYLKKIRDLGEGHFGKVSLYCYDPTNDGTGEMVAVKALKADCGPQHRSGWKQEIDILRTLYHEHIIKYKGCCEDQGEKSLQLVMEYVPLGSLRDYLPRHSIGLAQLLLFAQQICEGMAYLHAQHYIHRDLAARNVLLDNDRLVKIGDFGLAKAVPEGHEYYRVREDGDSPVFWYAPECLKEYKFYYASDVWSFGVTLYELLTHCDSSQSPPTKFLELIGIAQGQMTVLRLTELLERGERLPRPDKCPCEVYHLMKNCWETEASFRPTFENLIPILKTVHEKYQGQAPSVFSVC

[5] = Drug concentration in Balb/c mouse at 10 mg/kg, po after 7 hrs; format: ADME, organism-based; settings: in vivo, read-out: Drug uptake
[6] = Cmax in Balb/c mouse assessed as 6-((5-Fluoropyridin-2-yl)amino)-4-((2-(methylsulfonyl)phenyl)amino)nicotinamide level at 3 mg/kg, iv after 7 hrs; format: ADME, organism-based; set-up: dose 3 mg/kg, route intravenous; settings: in vivo
[7] = Cmax in Balb/c mouse assessed as 6-((5-Fluoropyridin-2-yl)amino)-4-((2-(methylsulfonyl)phenyl)amino)nicotinamide level at 3 mg/kg, iv after 0.5 hrs; format: ADME, organism-based; set-up: dose 3 mg/kg, route intravenous; settings: in vivo
[8] = Drug concentration in Balb/c mouse at 3 mg/kg, iv after 5 hrs; format: ADME, organism-based; settings: in vivo, read-out: Drug uptake
[9] = Half life in Balb/c mouse at 3 mg/kg, iv; format: ADME, organism-based; settings: in vivo
[10] = Permeability across apical to basolateral side in human Caco2 cells; format: ADME, cell-based; settings: Caco-2, read-out: permeability
[11] = Drug concentration in Balb/c mouse at 3 mg/kg, iv after 0.5 hrs; format: ADME, organism-based; settings: in vivo, read-out: Drug uptake
[12] = Volume of distribution at steady state in Balb/c mouse at 3 mg/kg, iv; format: ADME, organism-based; settings: in vivo, read-out: Vdss
[13] = Metabolic stability in mouse liver microsomes assessed as parent compound remaining after 10 mins; format: ADME, Microsome; settings: read-out: Stability
[14] = Clearance in Balb/c mouse at 3 mg/kg, iv; format: ADME, organism-based; settings: in vivo
[15] = molecular target: Tyrosine-protein kinase JAK2 (Homo sapiens, UniProt O60674); test: Inhibition of JAK2 JH1 domain (unknown origin)
Tyrosine-protein kinase JAK2, sequence (O60674 whole entry, the tested form may be a part): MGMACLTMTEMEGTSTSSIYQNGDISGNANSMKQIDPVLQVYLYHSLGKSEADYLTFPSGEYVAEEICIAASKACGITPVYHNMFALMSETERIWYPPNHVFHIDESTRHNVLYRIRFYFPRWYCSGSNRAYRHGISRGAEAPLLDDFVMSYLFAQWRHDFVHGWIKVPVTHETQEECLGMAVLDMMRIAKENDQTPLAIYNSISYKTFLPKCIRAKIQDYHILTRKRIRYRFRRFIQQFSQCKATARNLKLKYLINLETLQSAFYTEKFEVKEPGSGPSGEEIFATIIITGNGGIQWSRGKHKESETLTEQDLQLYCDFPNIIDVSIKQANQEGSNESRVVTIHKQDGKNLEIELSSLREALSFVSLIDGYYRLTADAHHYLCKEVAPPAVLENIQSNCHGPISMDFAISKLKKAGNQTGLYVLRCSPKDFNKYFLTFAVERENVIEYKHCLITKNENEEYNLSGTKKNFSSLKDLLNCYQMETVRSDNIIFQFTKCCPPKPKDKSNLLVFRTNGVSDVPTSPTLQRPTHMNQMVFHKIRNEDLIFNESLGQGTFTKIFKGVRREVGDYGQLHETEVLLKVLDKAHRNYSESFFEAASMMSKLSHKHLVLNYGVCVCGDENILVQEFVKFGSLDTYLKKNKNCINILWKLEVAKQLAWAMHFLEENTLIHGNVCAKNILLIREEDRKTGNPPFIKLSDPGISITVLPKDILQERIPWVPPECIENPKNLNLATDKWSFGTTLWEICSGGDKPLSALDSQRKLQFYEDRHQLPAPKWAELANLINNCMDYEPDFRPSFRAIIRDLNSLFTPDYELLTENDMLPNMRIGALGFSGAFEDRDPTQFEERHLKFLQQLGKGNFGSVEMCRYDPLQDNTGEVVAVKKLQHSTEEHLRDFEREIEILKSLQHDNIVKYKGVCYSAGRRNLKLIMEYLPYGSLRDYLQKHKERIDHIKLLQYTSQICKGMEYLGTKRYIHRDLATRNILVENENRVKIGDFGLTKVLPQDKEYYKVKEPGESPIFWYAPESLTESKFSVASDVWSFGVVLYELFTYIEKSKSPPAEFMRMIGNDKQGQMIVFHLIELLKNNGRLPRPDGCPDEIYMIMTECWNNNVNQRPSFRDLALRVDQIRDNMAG

[16] = Drug concentration in Balb/c mouse at 3 mg/kg, iv after 7 hrs; format: ADME, organism-based; settings: in vivo, read-out: Drug uptake
[17] = molecular target: T1, Non-receptor tyrosine-protein kinase TYK2; test: Inhibition of TYK2 JH2 domain in human whole blood assessed as inhibition of IFNalpha-induced STAT5 phosphorylation preincubated for 1 hr followed by IFNalpha stimulation and measured after 15 mins by fluorescence assay; format: tissue-based
[18] = Half life in rat liver microsomes; format: ADME, Microsome
[19] = AUClast in Balb/c mouse at 10 mg/kg, po; format: ADME, organism-based; set-up: dose 10 mg/kg, time 0 - last, route oral; settings: in vivo
[20] = molecular target: Non-receptor tyrosine-protein kinase TYK2 (Mus musculus, UniProt Q9R117); test: Inhibition of TYK2 JH2 domain in mouse whole blood assessed as inhibition of IFNalpha-induced STAT1 phosphorylation preincubated for 1 hr followed by IFNalpha stimulation and measured after 15 mins by fluorescence assay; format: tissue-based
[21] = Drug concentration in Balb/c mouse at 10 mg/kg, po after 5 hrs; format: ADME, organism-based; settings: in vivo, read-out: Drug uptake
[22] = molecular target: T1, Non-receptor tyrosine-protein kinase TYK2; test: Inhibition of TYK2 JH1 domain (unknown origin)
[23] = Cmax in Balb/c mouse assessed as 6-((5-Fluoropyridin-2-yl)amino)-4-((2-(methylsulfonyl)phenyl)amino)nicotinamide level at 10 mg/kg, po after 0.5 hrs; format: ADME, organism-based; set-up: dose 10 mg/kg, route oral; settings: in vivo
[24] = Drug concentration in Balb/c mouse at 10 mg/kg, po after 1 hr; format: ADME, organism-based; settings: in vivo, read-out: Drug uptake
[25] = Unbound drug level in rabbit at 1 to 10 mg/kg, iv; format: ADME, organism-based, Oryctolagus cuniculus; settings: in vivo
[26] = Cmax in anesthetized rabbit at 1 to 10 mg/kg, iv; format: ADME, organism-based, Oryctolagus cuniculus; settings: in vivo
[27] = Cmax in Balb/c mouse assessed as 6-((5-Fluoropyridin-2-yl)amino)-4-((2-(methylsulfonyl)phenyl)amino)nicotinamide level at 10 mg/kg, po after 3 hrs; format: ADME, organism-based; set-up: dose 10 mg/kg, route oral; settings: in vivo
[28] = Cmax in Balb/c mouse assessed as 6-((5-Fluoropyridin-2-yl)amino)-4-((2-(methylsulfonyl)phenyl)amino)nicotinamide level at 3 mg/kg, iv after 1 hr; format: ADME, organism-based; set-up: dose 3 mg/kg, route intravenous; settings: in vivo
[29] = Metabolic stability in human liver microsomes assessed as parent compound remaining after 10 mins; format: ADME, Microsome; settings: read-out: Stability
[30] = Cmax in Balb/c mouse assessed as 6-((5-Fluoropyridin-2-yl)amino)-4-((2-(methylsulfonyl)phenyl)amino)nicotinamide level at 3 mg/kg, iv after 5 hrs; format: ADME, organism-based; set-up: dose 3 mg/kg, route intravenous; settings: in vivo
[31] = Metabolic stability in rat liver microsomes assessed as parent compound remaining after 10 mins; format: ADME, Microsome; settings: read-out: Stability
[32] = Half life in human liver microsomes; format: ADME, Microsome
[33] = Cmax in Balb/c mouse assessed as 6-((5-Fluoropyridin-2-yl)amino)-4-((2-(methylsulfonyl)phenyl)amino)nicotinamide level at 3 mg/kg, iv after 3 hrs; format: ADME, organism-based; set-up: dose 3 mg/kg, route intravenous; settings: in vivo
JAK3/JAK1 = JAK3/JAK1 (Homo sapiens, UniProt P23458+P52333); test: Inhibition of JAK1/JAK3 (unknown origin) in IL-2 stimulated cells by cell based assay
JAK3/JAK1, sequence (P52333 whole entry): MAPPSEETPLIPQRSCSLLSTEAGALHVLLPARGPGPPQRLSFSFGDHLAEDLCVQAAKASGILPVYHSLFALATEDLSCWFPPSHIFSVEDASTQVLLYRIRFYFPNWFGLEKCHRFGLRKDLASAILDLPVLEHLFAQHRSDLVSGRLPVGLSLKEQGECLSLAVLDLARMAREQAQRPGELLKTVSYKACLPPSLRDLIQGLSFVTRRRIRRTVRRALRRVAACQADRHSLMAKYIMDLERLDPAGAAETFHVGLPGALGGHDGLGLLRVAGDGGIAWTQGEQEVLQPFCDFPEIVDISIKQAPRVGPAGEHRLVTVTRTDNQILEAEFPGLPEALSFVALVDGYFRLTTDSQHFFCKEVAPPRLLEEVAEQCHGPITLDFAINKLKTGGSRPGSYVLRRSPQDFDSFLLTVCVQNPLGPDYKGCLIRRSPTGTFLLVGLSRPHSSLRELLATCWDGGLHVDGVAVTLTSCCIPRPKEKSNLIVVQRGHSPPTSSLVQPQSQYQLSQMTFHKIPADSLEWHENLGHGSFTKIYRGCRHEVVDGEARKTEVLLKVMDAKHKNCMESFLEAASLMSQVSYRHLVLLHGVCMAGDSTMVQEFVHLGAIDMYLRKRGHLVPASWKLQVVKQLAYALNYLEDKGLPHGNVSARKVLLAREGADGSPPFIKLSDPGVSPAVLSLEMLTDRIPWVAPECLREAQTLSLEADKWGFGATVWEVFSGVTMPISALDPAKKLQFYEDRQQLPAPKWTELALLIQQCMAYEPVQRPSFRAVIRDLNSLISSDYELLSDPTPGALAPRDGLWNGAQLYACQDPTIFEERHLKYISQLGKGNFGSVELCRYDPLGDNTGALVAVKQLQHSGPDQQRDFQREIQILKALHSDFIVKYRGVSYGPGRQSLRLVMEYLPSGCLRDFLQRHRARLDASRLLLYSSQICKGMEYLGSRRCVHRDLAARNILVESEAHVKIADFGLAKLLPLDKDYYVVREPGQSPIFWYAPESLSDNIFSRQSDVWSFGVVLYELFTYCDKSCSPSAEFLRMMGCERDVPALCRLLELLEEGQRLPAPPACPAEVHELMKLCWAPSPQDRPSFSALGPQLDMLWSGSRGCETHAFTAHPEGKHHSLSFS
JAK3/JAK1, sequence (P23458 whole entry): as the sequence (P23458 whole entry) above

[34] = AUClast in Balb/c mouse at 3 mg/kg, iv; format: ADME, organism-based; set-up: dose 3 mg/kg, route intravenous, time 0 - last; settings: in vivo
[35] = Drug concentration in Balb/c mouse at 10 mg/kg, po after 3 hrs; format: ADME, organism-based; settings: in vivo, read-out: Drug uptake
[36] = Cmax in Balb/c mouse assessed as 6-((5-Fluoropyridin-2-yl)amino)-4-((2-(methylsulfonyl)phenyl)amino)nicotinamide level at 10 mg/kg, po after 0.05 hrs; format: ADME, organism-based; set-up: dose 10 mg/kg, route oral; settings: in vivo
[37] = Cmax in Balb/c mouse assessed as 6-((5-Fluoropyridin-2-yl)amino)-4-((2-(methylsulfonyl)phenyl)amino)nicotinamide level at 10 mg/kg, po after 7 hrs; format: ADME, organism-based; set-up: dose 10 mg/kg, route oral; settings: in vivo
[38] = Drug concentration in Balb/c mouse at 10 mg/kg, po after 0.05 hrs; format: ADME, organism-based; settings: in vivo, read-out: Drug uptake
[39] = Cmax in Balb/c mouse assessed as 6-((5-Fluoropyridin-2-yl)amino)-4-((2-(methylsulfonyl)phenyl)amino)nicotinamide level at 10 mg/kg, po after 5 hrs; format: ADME, organism-based; set-up: dose 10 mg/kg, route oral; settings: in vivo
[40] = Half life in dog liver microsomes; format: ADME, Canis lupus familiaris, Microsome
JAK2/TYK2 = JAK2/TYK2 (Homo sapiens, UniProt O60674+P29597); test: Inhibition of TYK2/JAK2 in IL23-stimulated human Kit225 cells by steady-glo luciferase assay
JAK2/TYK2, sequence (O60674 whole entry, the tested form may be a part): as the sequence (O60674 whole entry, the tested form may be a part) above
JAK2/TYK2, sequence (P29597 whole entry, the tested form may be a part): as the sequence (P29597 whole entry) above

[41] = molecular target: Tyrosine-protein kinase JAK1 (Homo sapiens, UniProt P23458); test: Inhibition of JAK1 JH1 domain (unknown origin)
Tyrosine-protein kinase JAK1, sequence (P23458 whole entry, the tested form may be a part): as the sequence (P23458 whole entry) above

[42] = Cmax in mouse at 10 mg/kg, po after 7 hrs; format: ADME, organism-based; set-up: dose 10 mg/kg, route oral; settings: in vivo
[43] = Half life in cynomolgus monkey liver microsomes; format: ADME, Macaca fascicularis, Microsome
[44] = Half life in mouse liver microsomes; format: ADME, Microsome
[45] = Efflux ratio of permeability in human Caco2; format: ADME, cell-based; settings: Caco-2
[46] = Drug concentration in Balb/c mouse at 3 mg/kg, iv after 0.05 hrs; format: ADME, organism-based; settings: in vivo, read-out: Drug uptake
[47] = AUClast in mouse at 10 mg/kg, po after 7 hrs; format: ADME, organism-based; set-up: time < 7 hr, dose 10 mg/kg, route oral; settings: in vivo
[48] = Drug concentration in Balb/c mouse at 3 mg/kg, iv after 3 hrs; format: ADME, organism-based; settings: in vivo, read-out: Drug uptake
[49] = Drug concentration in Balb/c mouse at 3 mg/kg, iv after 1 hr; format: ADME, organism-based; settings: in vivo, read-out: Drug uptake
JAK2/JAK1 = JAK2/JAK1 (Homo sapiens, UniProt O60674+P23458); test: Inhibition of JAK1/JAK2 (unknown origin) in GM-CSF stimulated cells by cell based assay
JAK2/JAK1, sequence (P23458 whole entry): as above
JAK2/JAK1, sequence (O60674 whole entry): as the sequence (O60674 whole entry, the tested form may be a part) above

T1 sequence (P29597 whole entry, the tested form may be a part): as the sequence (P29597 whole entry) above

pIC50 [1]: 9.31
Cmax [2]: 4.9 nM
concentration at 0.5 h [3]: 1400 nM
Cmax [4]: 4.9 nM
pIC50 (JAK1/TYK2): 7.28
concentration at 7 h [5]: 260 nM
Cmax [6]: 4.9 nM
Cmax [7]: 4.9 nM
concentration at 5 h [8]: 270 nM
half-life [9]: 72 min
Papp A→B [10]: 5.8 ×10⁻⁶ cm/s
concentration at 0.5 h [11]: 2400 nM
Vd [12]: 2.7 L/kg
remaining at 10 min [13]: 81%
clearance [14]: 25 mL/min/kg
pIC50 [15]: < 4.30
concentration at 7 h [16]: 47 nM
pIC50 [17]: 6.80
half-life [18]: 44 min
AUC(0-t) [19]: 7.8 µM·h
pIC50 [20]: 6.22
concentration at 5 h [21]: 1300 nM
pIC50 [22]: < 4.30
Cmax [23]: 4.9 nM
concentration at 1 h [24]: 1400 nM
fraction unbound [25]: 0.13
Cmax [26]: 20200 nM
Cmax [27]: 4.9 nM
Cmax [28]: 4.9 nM
remaining at 10 min [29]: 85%
Cmax [30]: 4.9 nM
remaining at 10 min [31]: 91%
half-life [32]: 69 min
Cmax [33]: 4.9 nM
pIC50 (JAK3/JAK1): < 4.90
AUC(0-t) [34]: 5 µM·h
concentration at 3 h [35]: 1300 nM
Cmax [36]: 4.9 nM
Cmax [37]: 4.9 nM
concentration at 0.05 h [38]: 750 nM
Cmax [39]: 4.9 nM
half-life [40]: 16 min
pIC50 (JAK2/TYK2): 6.96
pIC50 [41]: < 5.70
Cmax [42]: 1440 nM
half-life [43]: 6 min
half-life [44]: 35 min
efflux ratio [45]: 9.3
concentration at 0.05 h [46]: 2800 nM
AUC(0-t) at 7 h [47]: 7.83 µM·h
concentration at 3 h [48]: 470 nM
concentration at 1 h [49]: 1500 nM
pIC50 (JAK2/JAK1): < 4.90
SMILES: [2H]C([2H])([2H])NC(=O)c1cnc(Nc2ccc(F)cn2)cc1Nc1ccccc1S(C)(=O)=O
